Assay [1] relates to U-251. The assay is described as follows: Cytotoxicity against human U-251 cells assessed as cell growth inhibition. In kind it is functional.
Assay [2] relates to DU-145. The assay is described as follows: Cytotoxicity against human DU-145 cells assessed as cell growth inhibition. The assay is classed as functional.
For assay [3], the system named is L1210. In words: Antiproliferative activity against mouse L1210 cells assessed as cell growth inhibition measured after 72 hrs by MTT assay. In kind it is functional, cell-based. The settings on record: L1210, 72 h. (In general: Formazan colour is commonly taken as a measure of viable cells.)
Assay [4] has as its system MGC-803. The assay is described as follows: Cytotoxicity against human MGC-803 assessed as inhibition of cell growth by MTT assay. The assay is classed as functional, cell-based.
Assay [5] deals with NCI-H460. In words: Cytotoxicity against human NCI-H460 cells assessed as cell growth inhibition. The assay is classed as functional.
Assay [6] concerns HL-60. The assay is described as follows: Cytotoxicity against human HL-60 cells assessed as reduction in cell growth incubated for 48 hrs by MTT assay. In kind it is functional, cell-based. The settings on record: HL-60, 48 h.
The test system of assay [7] is NCI-N87. In words: Cytotoxicity against human NCI-N87 cells measured after 72 hrs by Celltiter-Glo assay. In kind it is functional, cell-based. The settings on record: NCI-N87, 72 h. On the technique in general: ATP-based viability assays read luminescence as a measure of living cells.
In assay [8] the test system is MGC-803. The assay is described as follows: Antiproliferative activity against human MGC-803 cells assessed as reduction in cell viability by MTT assay. In kind it is functional, cell-based.
The subject of assay [9] is HeLa. In words: Cytotoxicity against human HeLa cells assessed as reduction in cell growth incubated for 48 hrs by MTT assay. The assay is classed as functional, cell-based.
In assay [10] the test system is HL-60. In words: Antiproliferative activity against human HL-60 cells assessed as cell growth inhibition incubated for 72 hrs by MTT assay. The settings on record: HL-60, 72 h. In kind it is functional, cell-based.
Assay [11] deals with HCT-116. The assay is described as follows: Antiproliferative activity against human HCT-116 cells assessed as reduction in cell proliferation. The assay is classed as functional, cell-based.
In assay [12] the test system is NCI/ADR-RES. In words: Antiproliferative activity against human NCI-ADR-RES cells assessed as inhibition of cell growth measured after 48 hrs by SRB assay. The assay is classed as functional, cell-based. (The SRB assay estimates cell density from bound dye.)
For assay [13], the system named is MCF7. In words: Cytotoxicity against human MCF7 cells assessed as reduction in cell growth incubated for 5 days by MTT assay. The assay is classed as functional, cell-based. The settings on record: MCF7, 120 h.
Assay [14] deals with U-251. In words: Growth inhibition of human U-251 cells by sulforhodamine B assay. The assay is classed as functional. The settings on record: time 72 hrs.
The test system of assay [15] is K562. The assay is described as follows: Growth inhibition of human K562 cells incubated for 48 hrs by sulforhodamine B assay. In kind it is functional.
Assay [16] concerns HT-29. The assay is described as follows: Cytotoxicity against human HT-29 cells assessed as reduction in cell viability by SRB assay. The assay is classed as functional, cell-based.
In assay [17] the test system is SF-295. In words: Growth inhibition against human SF-295 cells incubated for 48 hrs by sulforhodamine B assay. The assay is classed as functional.
Assay [18] concerns MCF7. In words: Antiproliferative activity against human MCF7 cells assessed as cell growth inhibition incubated for 48 hrs by MTT assay. In kind it is functional, cell-based. The settings on record: MCF7, 48 h.
In assay [19] the test system is HT-29. In words: Growth inhibition of human HT-29 cells by SRB assay. The assay is classed as functional.
For assay [20], the system named is HUVEC. The assay is described as follows: Cytotoxicity against HUVEC cells assessed as reduction in cell viability incubated for 48 hrs by MTT assay. In kind it is functional, cell-based. The settings on record: Homo sapiens.
Assay [21] concerns NCI-N87. In words: Growth inhibition of human NCI-N87 cells assessed as reduction in cell viability measured after 72 hrs by MTT assay. The assay is classed as functional.
Assay [22] relates to P388. The assay is described as follows: Cytotoxicity against mouse P388 cells assessed as inhibition of cell growth incubated for 48 hrs by SRB assay. In kind it is functional, cell-based. The settings on record: P388, 48 h.
Assay [23] concerns DU-145. The assay is described as follows: Growth inhibition of human DU-145 cells incubated for 48 hrs by sulforhodamine B assay. The assay is classed as functional.
Assay [24] relates to MDA-MB-231. In words: Antiproliferative activity against human MDA-MB-231 cells assessed as reduction in cell viability after 48 hrs by SRB assay. The assay is classed as functional, cell-based. The settings on record: MDA-MB-231, 48 h.
In assay [25] the test system is MCF7. The assay is described as follows: Growth inhibition of human MCF7 cells incubated for 48 hrs by SRB assay. The assay is classed as functional.
Assay [26] relates to HCT-116. The assay is described as follows: Anticancer activity against human HCT-116 cells assessed as cell growth inhibition. In kind it is functional.
Assay [27] deals with SMMC-7721. The assay is described as follows: Anticancer activity against human SMMC-7721 cells assessed as cell growth inhibition incubated for 48 hrs by CCK8 assay. The settings on record: SMMC-7721, 48 h. The assay is classed as functional, cell-based.
Assay [28] relates to HL-60. In words: Growth inhibition of human HL-60 cells incubated for 4 days by WST assay. As to conditions: HL-60, 96 h, time 4 day. In kind it is functional.
In assay [29] the test system is NCI-H460. In words: Cytotoxicity against human NCI-H460 cells assessed reduction in cell viability. The assay is classed as functional, cell-based.
Assay [30] has as its system SF-268. In words: Antiproliferative activity against human SF-268 cells assessed as reduction in cell growth incubated for 48 hrs by SRB assay. The assay is classed as functional, cell-based. The settings on record: SF-268, 48 h.
Assay [31] relates to MCF7. In words: Cytotoxicity against human MCF7 cells assessed as reduction in cell growth. In kind it is functional, cell-based.
The subject of assay [32] is U-251. In words: Growth inhibition of human U-251 cells incubated for 48 hrs by SRB assay. The assay is classed as functional.
For assay [33], the system named is ACHN. In words: Growth inhibition of human ACHN cells incubated for 48 hrs by SRB assay. In kind it is functional.
Assay [34] relates to ACHN. In words: Growth inhibition of human ACHN cells. The assay is classed as functional.
Assay [35] deals with A549. The assay is described as follows: Cytotoxicity against human A549 cells assessed as cell growth inhibition. The assay is classed as functional.
The test system of assay [36] is 786-0. In words: Cytotoxicity against human 786-0 cells assessed as cell growth inhibition. In kind it is functional.
For assay [37], the system named is HL-60. In words: Cytotoxicity against human HL-60 cells assessed as reduction in cell viability. In kind it is functional, cell-based.

One may read the GI50 as the concentration that inhibits growth by half. In the case of `O=C1c2ccccc2NC2c3[nH]c4ccccc4c3CCN12` (configuration not stated), the GI50 is 0.02 µM in assay [1] and 0.2 µM in assay [2].
For orientation: IC50 means the concentration that gives 50% inhibition. As for `O=c1c2ccccc2nc2n1Cc1cc3cccnc3nc1-2`, the IC50 in assay [3] was determined as 0.13 µM.
Take `O=c1c2ccccc2nc2n1CC[C@@H]2O[C@@H]1O[C@H](CO)[C@@H](O)[C@H](O)[C@H]1O`: in assay [4], the IC50 was 84.1 µM.
As to `O=c1c2ccccc2nc2n1CCc1c-2[nH]c2ccc(Br)cc12`, the GI50 in [5] is 1.55 µM.
On to `CO[C@@H]1c2c([nH]c3ccccc23)-c2nc3ccccc3c(=O)n2[C@H]1O`, for which the IC50 in [6] amounted to 7.82 µM; in assay [7], 22.3 µM.
For the compound `O=c1c2ccccc2nc2n1CC[C@@H]2O`, the IC50 in assay [8] was determined as 94.5 µM.
As to `O=c1c2ccccc2nc2n1Cc1cc3ccccc3nc1-2` [LUOTONIN A], the IC50 in [9] was 3 µM; in assay [10], over 100 µM; in [11], 51.1 µM; in assay [12] it was 3 µM; in assay [13], 3 µM.
Turning to `O=c1c2ccccc2nc2n1CCc1c-2[nH]c2ccccc12` [RUTAECARPINE], the GI50 turned out to be 0.02 µM in assay [14]; 25.8 µM in assay [15]; 14.1 µM in assay [17]; 31.6 µM in [19]; 8.41 µM in [21]; 31.7 µM in assay [23]. The GI50 in [25] came out at 19.6 µM; in assay [26], 33.9 µM; in assay [28], 19.8 µM. Moreover, the IC50 was found to be 118 µM in [16]; 74.5 µM in assay [18]; 16.5 µM in [20]; 36.8 µM in assay [22]; 118 µM in [24]; 18.9 µM in assay [27].
As to `CC(=O)C[C@]1(O)c2ccccc2-n2c1nc1ccccc1c2=O`, the IC50 was 27 µM in [29], 43.9 µM in [30] and 33.8 µM in [31].
For `CN1c2ccccc2C(=O)N2CCc3c([nH]c4ccc(Br)cc34)C21` (configuration not stated), the GI50 in assay [32] was found to be 0.3 µM; in assay [33], 0.4 µM.
For `CSc1ccc2[nH]c3c(c2c1)CCN1C(=O)c2ccccc2NC31` (configuration not stated), it took 0.08 µM to inhibit growth in assay [34] by half (GI50).
As to `COc1ccc2c3c([nH]c2c1)-c1nc2ccccc2c(=O)n1CC3`, the figures for the GI50 in assay [35] and in [36] were 0.75 µM and 0.31 µM, respectively.
Consider `CCO[C@@H]1c2c([nH]c3ccccc23)-c2nc3ccccc3c(=O)n2[C@H]1O`, for which the IC50 in assay [37] turned out to be 8.31 µM.

These data come from ChEMBL document CHEMBL5385851, “Natural quinazolinones: From a treasure house to promising anticancer leads” (Eur J Med Chem, 2023).
